Patent US12227496B2 (BRISTOL-MYERS SQUIBB COMPANY, priority 2019, dated 2025)

biological target: T1, human FXR (Homo sapiens, UniProt Q96RI1); assay: transient human FXR/Gal4-luciferase reporter assay; type: cell-based; conditions: Gal4-hFXR LBD fusion, luciferase reporter in HEK293 cells; response relative to 8 μM GW-4064
T1 construct: expressed in transfected cells; host or cells: HEK293 cells stably carrying a 5xGal4-response-element firefly luciferase reporter, transiently transfected with pcDNA3.1-Gal4-FXR
T1 sequence (Q96RI1 262-486 limits assumed): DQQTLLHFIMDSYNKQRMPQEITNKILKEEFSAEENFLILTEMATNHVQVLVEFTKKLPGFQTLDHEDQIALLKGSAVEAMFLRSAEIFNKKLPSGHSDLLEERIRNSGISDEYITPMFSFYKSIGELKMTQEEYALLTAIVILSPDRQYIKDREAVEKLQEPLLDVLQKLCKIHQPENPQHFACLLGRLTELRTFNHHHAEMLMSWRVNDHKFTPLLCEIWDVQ
How it was run: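 HEK293 cells stably carrying a 5×Gal4-response-element firefly luciferase reporter were transiently transfected with Gal4-hFXR. They were then incubated overnight at 37 °C with compound serial dilutions in medium containing 10% charcoal/dextran-stripped FBS. Luminescence was read after Steady-Glo addition.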

| EC50 [nM] | Structure (SMILES) |
| --- | --- |
| 303 | COc1cc(-c2cccc(N(CC34CCC(c5nc(C6CC6)no5)(CC3)CC4)C(=O)C3CCOCC3)c2)ccn1 [Example 83, N-((4-(3-cyclopropyl-1,2,4-oxadiazol-5-yl)bicyclo[2.2.2]octan-1-yl)methyl)-N-(3-(2-methoxypyridin-4-yl)phenyl)tetrahydro-2H-pyran-4-carboxamide] |
| 1770 | COc1nccc(-c2cccc(N(CC34CCC(c5nc(C6CC6)no5)(CC3)CC4)C(=O)C3CCOCC3)c2)n1 [Example 84, N-((4-(3-cyclopropyl-1,2,4-oxadiazol-5-yl)bicyclo[2.2.2]octan-1-yl)methyl)-N-(3-(2-methoxypyrimidin-4-yl)phenyl)tetrahydro-2H-pyran-4-carboxamide] |
| 787 | COc1nccc(-c2cccc(N(CC34CCC(c5nc(C6CC6)no5)(CC3)CC4)C(=O)C3CCC(F)(F)CC3)c2)n1 [Example 85, N-((4-(3-cyclopropyl-1,2,4-oxadiazol-5-yl)bicyclo[2.2.2]octan-1-yl)methyl)-4,4-difluoro-N-(3-(2-methoxypyrimidin-4-yl)phenyl)cyclohexane-1-carboxamide] |
| 2470 | O=C(C1CCOCC1)N(CC12CCC(c3nc(C4CC4)no3)(CC1)CC2)c1cccc(-c2ccnc(OC3CC3)n2)c1 [Example 86, N-(3-(2-cyclopropoxypyrimidin-4-yl)phenyl)-N-((4-(3-cyclopropyl-1,2,4-oxadiazol-5-yl)bicyclo[2.2.2]octan-1-yl)methyl)tetrahydro-2H-pyran-4-carboxamide] |
| 274 | CCOc1ncc(-c2cccc(N(CC34CCC(c5nc(C(C)(C)C)no5)(CC3)CC4)C(=O)C3CCOCC3)c2)cn1 [Example 87, N-((4-(3-(tert-butyl)-1,2,4-oxadiazol-5-yl)bicyclo[2.2.2]octan-1-yl)methyl)-N-(3-(2-ethoxypyrimidin-5-yl)phenyl)tetrahydro-2H-pyran-4-carboxamide] |
| 227 | CCOc1ncc(-c2cccc(N(CC34CCC(c5noc(C(C)(C)C)n5)(CC3)CC4)C(=O)C3CCOCC3)c2)cn1 [Example 88, N-((4-(5-(tert-butyl)-1,2,4-oxadiazol-3-yl)bicyclo[2.2.2]octan-1-yl)methyl)-N-(3-(2-ethoxypyrimidin-5-yl)phenyl)tetrahydro-2H-pyran-4-carboxamide] |
| 96 | CC(C)(C)c1nc(C23CCC(CN(C(=O)C4CCOCC4)c4cccc(-c5ccc(OC(F)F)cc5)c4)(CC2)CC3)no1 [Example 89, N-((4-(5-(tert-butyl)-1,2,4-oxadiazol-3-yl)bicyclo[2.2.2]octan-1-yl)methyl)-N-(4′-(difluoromethoxy)-[1,1′-biphenyl]-3-yl)tetrahydro-2H-pyran-4-carboxamide] |
| 36 | Cc1nc2ccc(-c3cccc(N(CC45CCC(c6nc(C7CC7)no6)(CC4)CC5)C(=O)C4CCCCC4)c3)cc2s1 [Example 90, N-((4-(3-cyclopropyl-1,2,4-oxadiazol-5-yl)bicyclo[2.2.2]octan-1-yl)methyl)-N-(3-(2-methylbenzo[d]thiazol-6-yl)phenyl)cyclohexanecarboxamide] |
| 97 | Cc1nc2ccc(-c3cccc(N(CC45CCC(c6nc(C7CC7)no6)(CC4)CC5)C(=O)C4CCOCC4)c3)cc2s1 [Example 91, N-((4-(3-cyclopropyl-1,2,4-oxadiazol-5-yl)bicyclo[2.2.2]octan-1-yl)methyl)-N-(3-(2-methylbenzo[d]thiazol-6-yl)phenyl)tetrahydro-2H-pyran-4-carboxamide] |
| 799 | O=C(C1CCC(F)(F)CC1)N(CC12CCC(c3nc(C4CC4)no3)(CC1)CC2)c1cccc(-c2nc3cc(F)ccc3o2)c1 [Example 93, N-((4-(3-cyclopropyl-1,2,4-oxadiazol-5-yl)bicyclo[2.2.2]octan-1-yl)methyl)-4,4-difluoro-N-(3-(5-fluorobenzo[d]oxazol-2-yl)phenyl)cyclohexane-1-carboxamide] |
| 3430 | COc1cc(-c2cccc(N(CC34CC(c5nc(C6CC6)no5)(C3)C4)C(=O)C3CCCCC3)c2)ccn1 [Example 96, N-((3-(3-cyclopropyl-1,2,4-oxadiazol-5-yl)bicyclo[1.1.1]pentan-1-yl)methyl)-N-(3-(2-methoxypyridin-4-yl)phenyl)cyclohexanecarboxamide] |
| 1710 | COc1cc(-c2cccc(N(CC34CC(c5nc(C6CCOCC6)no5)(C3)C4)C(=O)C3CCCCC3)c2)ccn1 [Example 97, N-(3-(2-methoxypyridin-4-yl)phenyl)-N-((3-(3-(tetrahydro-2H-pyran-4-yl)-1,2,4-oxadiazol-5-yl)bicyclo[1.1.1]pentan-1-yl)methyl)cyclohexanecarboxamide] |
| 399 | COc1cc(-c2cccc(N(CC34CCC(C(=O)NC5CC5)(CC3)CC4)C(=O)C3CCCCC3)c2)ccn1 [Example 98, N-cyclopropyl-4-((N-(3-(2-methoxypyridin-4-yl)phenyl)cyclohexanecarboxamido)methyl)bicyclo[2.2.2]octane-1-carboxamide] |
| 1530 | COc1cc(-c2cccc(N(CC34CCC(C#N)(CC3)CC4)C(=O)C3CCCCC3)c2)ccn1 [Example 99, N-((4-cyanobicyclo[2.2.2]octan-1-yl)methyl)-N-(3-(2-methoxypyridin-4-yl)phenyl)cyclohexanecarboxamide] |
| 506 | COc1cc(-c2cccc(N(CC34CCC(c5nnnn5C)(CC3)CC4)C(=O)C3CCCCC3)c2)ccn1 [Example 100, N-(3-(2-methoxypyridin-4-yl)phenyl)-N-((4-(1-methyl-1H-tetrazol-5-yl)bicyclo[2.2.2]octan-1-yl)methyl)cyclohexanecarboxamide] |
| 250 | CC(C)(C)c1noc(C23CCC(CN(C(=O)C4CCC(F)(F)CC4)c4cccc(-c5nc(C6CC6)no5)c4)(CC2)CC3)n1 [Example 103, N-((4-(3-(tert-butyl)-1,2,4-oxadiazol-5-yl)bicyclo[2.2.2]octan-1-yl)methyl)-N-(3-(3-cyclopropyl-1,2,4-oxadiazol-5-yl)phenyl)-4,4-difluorocyclohexane-1-carboxamide] |
| 637 | CCOc1ccc(-c2cc(N(CC34CCC(c5noc(C(C)(F)F)n5)(CC3)CC4)C(=O)C3CCC(F)(F)CC3)ccc2F)cc1 [Example 105, N-((4-(5-(1,1-difluoroethyl)-1,2,4-oxadiazol-3-yl)bicyclo[2.2.2]octan-1-yl)methyl)-N-(4′-ethoxy-6-fluoro-[1,1′-biphenyl]-3-yl)-4,4-difluorocyclohexane-1-carboxamide] |
| 406 | CCOc1ncc(-c2cc(N(CC34CCC(c5noc(C(C)(F)F)n5)(CC3)CC4)C(=O)C3CCC(F)(F)CC3)ccc2F)cn1 [Example 106, N-((4-(5-(1,1-difluoroethyl)-1,2,4-oxadiazol-3-yl)bicyclo[2.2.2]octan-1-yl)methyl)-N-(3-(2-ethoxypyrimidin-5-yl)-4-fluorophenyl)-4,4-difluorocyclohexane-1-carboxamide] |
| 1020 | CC(F)(F)c1nc(C23CCC(CN(C(=O)C4CCC(F)(F)CC4)c4ccc(F)c(-c5ccc(S(C)(=O)=O)cc5)c4)(CC2)CC3)no1 [Example 107, N-((4-(5-(1,1-difluoroethyl)-1,2,4-oxadiazol-3-yl)bicyclo[2.2.2]octan-1-yl)methyl)-4,4-difluoro-N-(6-fluoro-4′-(methylsulfonyl)-[1,1′-biphenyl]-3-yl)cyclohexane-1-carboxamide] |
| 250 | Cc1nc2ccc(-c3cc(N(CC45CCC(c6noc(C(C)(F)F)n6)(CC4)CC5)C(=O)C4CCC(F)(F)CC4)ccc3F)cc2s1 [Example 108, N-((4-(5-(1,1-difluoroethyl)-1,2,4-oxadiazol-3-yl)bicyclo[2.2.2]octan-1-yl)methyl)-4,4-difluoro-N-(4-fluoro-3-(2-methylbenzo[d]thiazol-6-yl)phenyl)cyclohexane-1-carboxamide] |
| 50 | CC(F)(F)c1nc(C23CCC(CN(C(=O)C4CCOCC4)c4cccc(-c5ccc(OC(F)F)cc5)c4)(CC2)CC3)no1 [Example 109, N-((4-(5-(1,1-difluoroethyl)-1,2,4-oxadiazol-3-yl)bicyclo[2.2.2]octan-1-yl)methyl)-N-(4′-(difluoromethoxy)-[1,1′-biphenyl]-3-yl)tetrahydro-2H-pyran-4-carboxamide] |
| 467 | CC(F)(F)c1nc(C23CCC(CN(C(=O)C4CCS(=O)(=O)CC4)c4cccc(-c5ccc(OC(F)F)cc5)c4)(CC2)CC3)no1 [Example 110, N-((4-(5-(1,1-difluoroethyl)-1,2,4-oxadiazol-3-yl)bicyclo[2.2.2]octan-1-yl)methyl)-N-(4′-(difluoromethoxy)-[1,1′-biphenyl]-3-yl)tetrahydro-2H-thiopyran-4-carboxamide 1,1-dioxide] |
| 69 | CC(F)(F)c1nc(C23CCC(CN(C(=O)C4CCC(F)(F)CC4)c4cccc(-c5ccc(OC(F)F)cc5)c4)(CC2)CC3)no1 [Example 111, N-((4-(5-(1,1-difluoroethyl)-1,2,4-oxadiazol-3-yl)bicyclo[2.2.2]octan-1-yl)methyl)-N-(4′-(difluoromethoxy)-[1,1′-biphenyl]-3-yl)-4,4-difluorocyclohexane-1-carboxamide] |
| 142 | CC(F)(F)c1nc(C23CCC(CN(C(=O)C4CCC(F)(F)CC4)c4cccc(-c5nc(C6CC6)no5)c4)(CC2)CC3)no1 [Example 112, N-(3-(3-cyclopropyl-1,2,4-oxadiazol-5-yl)phenyl)-N-((4-(5-(1,1-difluoroethyl)-1,2,4-oxadiazol-3-yl)bicyclo[2.2.2]octan-1-yl)methyl)-4,4-difluorocyclohexane-1-carboxamide] |
